Test results published in US7052705B2, “Anti-angiogenic peptides” (Regeneron Pharmaceuticals, Inc., priority 2001, dated 2006).
Peptide text beside a SMILES is read from it.

What was measured:
NP-1 = NP-1 (Homo sapiens, UniProt O14786); assay type: binding; design: the NP-1 cDNA used for these experiments would only produce the full-length receptor; expressed in transfected cells; host or cells: COS-1
Description: (§1) When co-expressing VEGFR-2 and NP-1, 5 μg of VEGFR-2 cDNA and 2 μg of NP-1 cDNA are used. When the receptors are expressed in isolation, for VEGFR-2, 5 μg of VEGFR-2 cDNA and 2 μg of mock vector cDNA are used.
(§2) After generation of the liposome/DNA solution, the cells are rinsed one time with 5 ml Optimem I, then replaced with another 5 ml of Optimem I containing the liposome/DNA solution. The cells are incubated for two to four hours at 37° C., 5% CO2, then 5 ml of COS-1 cell growth medium is applied and the transfection is allowed to proceed overnight. The following day, cells are trypsinized (0.2% trypsin, 1 mM EDTA, Gibco-BRL), and cells containing common transfectants are pooled. […] The cells are then used for corresponding VEGFR-2/NP-1 complex formation and peptide blocking studies.
(§3) Cells are plated the day before experimentation at 200,000 cells per well in twelve well tissue culture plates (VWR) in 1 ml of growth medium specific for each cell type. On the day of experimentation, the cells were pre-equilibrated at 4° C. for 30 to 60 minutes in binding buffer (0.2% BSA, Sigma; 25 mM Hepes, Gibco; MEM, Gibco). […] The binding reaction is allowed to reach equilibrium for four hours at 4° C. with gentle agitation.
(§4) Unbound ligand is then removed by quickly washing three times with 5 ml ice cold BSA-free binding buffer (MEM, Gibco, 25 mM Hepes, Gibco). Cells are lysed by the addition of 250 μl of RIPS Buffer (previously described), and the lysed cells are transferred to 12×75 mm test tubes and counted using a gamma counter. Generation of competition curves and IC50 values are performed using the Prism software package (Graphpad Software Inc., San Diego, Calif.).

VEGFR-2/NP-1 = system: T1, VEGFR-2/NP-1; assay type: binding, human
T1 construct: In the COS-1 cells overexpressing the full-length VEGFR-2; the NP-1 cDNA used for these experiments would only produce the full-length receptor; expressed in transfected cells; host or cells: COS-1
Description: as §1, §2, §3, §4

Chain of NP-1 (O14786 22-923): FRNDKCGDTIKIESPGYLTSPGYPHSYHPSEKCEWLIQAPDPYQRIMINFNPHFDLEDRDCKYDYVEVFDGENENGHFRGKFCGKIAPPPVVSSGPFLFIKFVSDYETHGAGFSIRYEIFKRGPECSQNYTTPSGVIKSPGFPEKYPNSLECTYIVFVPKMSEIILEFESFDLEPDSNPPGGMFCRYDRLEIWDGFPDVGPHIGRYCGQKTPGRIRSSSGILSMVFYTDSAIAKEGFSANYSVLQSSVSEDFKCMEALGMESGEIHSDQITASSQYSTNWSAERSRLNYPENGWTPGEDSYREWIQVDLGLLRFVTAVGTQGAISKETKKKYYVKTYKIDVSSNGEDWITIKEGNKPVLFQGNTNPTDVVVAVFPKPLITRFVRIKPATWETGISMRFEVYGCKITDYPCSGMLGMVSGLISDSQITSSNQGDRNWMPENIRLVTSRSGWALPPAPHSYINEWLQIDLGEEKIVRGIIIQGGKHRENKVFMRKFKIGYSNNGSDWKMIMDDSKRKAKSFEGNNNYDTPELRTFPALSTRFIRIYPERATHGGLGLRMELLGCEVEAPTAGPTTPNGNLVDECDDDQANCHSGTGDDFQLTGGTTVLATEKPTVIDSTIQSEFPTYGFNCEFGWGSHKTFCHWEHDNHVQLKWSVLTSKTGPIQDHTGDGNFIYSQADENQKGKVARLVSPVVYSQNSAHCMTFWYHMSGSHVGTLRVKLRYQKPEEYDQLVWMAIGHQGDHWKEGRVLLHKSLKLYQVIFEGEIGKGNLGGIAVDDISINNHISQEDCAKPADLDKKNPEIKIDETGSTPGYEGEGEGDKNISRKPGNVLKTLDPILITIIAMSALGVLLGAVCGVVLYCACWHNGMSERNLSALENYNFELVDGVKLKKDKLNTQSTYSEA

Compound | Relative Affinity to Lead (RALP), NP-1 (NP-1) | Relative Affinity to Lead (RALP), VEGFR-2/NP-1 (VEGFR-2/NP-1) | Relative Affinity to Lead Peptide (RALP), NP-1 (NP-1) | Relative Affinity to Lead Peptide (RALP), VEGFR-2/NP-1 (VEGFR-2/NP-1)
C[C@@H]1NC(=O)CNC(=O)[C@H](CCCNC(=N)N)NC(=O)CNC(=O)[C@H](C)NC(=O)[C@@H](N)CSSC[C@@H](C(=O)N[C@@H](CCCNC(=N)N)C(=O)N[C@@H](CCC(=O)O)C(=O)N[C@@H](CCCCN)C(=O)N[C@@H](CCC(N)=O)C(=O)N[C@@H](CCCNC(=N)N)C(=O)N2CCC[C@H]2C(=O)N[C@@H](CO)C(=O)N[C@@H](CC(=O)O)C(=O)N[C@@H](CCCCN)C(=O)N2CCC[C@H]2C(=O)N[C@@H](CCCNC(=N)N)C(=O)N[C@@H](CCCNC(=N)N)C(=O)O)NC(=O)[C@H](CCCNC(=N)N)NC1=O [P6V8-3NCS1-7CCA1A5] (HELM PEPTIDE1{C.A.G.R.G.A.R.C.R.E.K.Q.R.P.S.D.K.P.R.R}$PEPTIDE1,PEPTIDE1,1:R3-8:R3$$$V2.0) | 30.76 | 17.33 | – | –
C[C@@H]1NC(=O)[C@@H](N)CSSC[C@@H](C(=O)N[C@@H](CCCNC(=N)N)C(=O)N[C@@H](CCC(=O)O)C(=O)N[C@@H](CCCCN)C(=O)N[C@@H](CCC(N)=O)C(=O)N[C@@H](CCCNC(=N)N)C(=O)N2CCC[C@H]2C(=O)N[C@@H](CO)C(=O)N[C@@H](CC(=O)O)C(=O)N[C@@H](CCCCN)C(=O)N2CCC[C@H]2C(=O)N[C@@H](CCCNC(=N)N)C(=O)N[C@@H](CCCNC(=N)N)C(=O)O)NC(=O)[C@H](CCCNC(=N)N)NC(=O)[C@H](CCCCN)NC(=O)CNC(=O)[C@H](CCCNC(=N)N)NC(=O)CNC1=O [P6V8-3NCS1-7CCA1] (HELM PEPTIDE1{C.A.G.R.G.K.R.C.R.E.K.Q.R.P.S.D.K.P.R.R}$PEPTIDE1,PEPTIDE1,1:R3-8:R3$$$V2.0) | 14.35 | 1.97 | – | –
C[C@@H]1NC(=O)CNC(=O)[C@H](CCCNC(=N)N)NC(=O)CNC(=O)[C@H](CCCCN)NC(=O)[C@@H](N)CSSC[C@@H](C(=O)N[C@@H](CCCNC(=N)N)C(=O)N[C@@H](CCC(=O)O)C(=O)N[C@@H](CCCCN)C(=O)N[C@@H](CCC(N)=O)C(=O)N[C@@H](CCCNC(=N)N)C(=O)N2CCC[C@H]2C(=O)N[C@@H](CO)C(=O)N[C@@H](CC(=O)O)C(=O)N[C@@H](CCCCN)C(=O)N2CCC[C@H]2C(=O)N[C@@H](CCCNC(=N)N)C(=O)N[C@@H](CCCNC(=N)N)C(=O)O)NC(=O)[C@H](CCCNC(=N)N)NC1=O [P6V8-3NCS1-7CCA5] (HELM PEPTIDE1{C.K.G.R.G.A.R.C.R.E.K.Q.R.P.S.D.K.P.R.R}$PEPTIDE1,PEPTIDE1,1:R3-8:R3$$$V2.0) | 1.64 | 1.87 | – | –
H-AGRGARAAEAQRPSDKPRR-OH [P6V8-3NCSA1,5,7,8, 10] | – | – | 67.76 | 5.22
H-AGRGARRREKQRPSDKPRR-OH [P6V8-3NCSA1A5] | – | – | – | 0.71
H-AGRGKARREKQRPSDKPRR-OH [P6V8-3NCSA1A6] | – | – | 2.30 | 0.93
H-AGRGKRRREKQRPSDKPRR-OH [Peptide P6V8-3NCSA1] | – | – | 0.99 | –
H-KGAGKARREKQRPSDKPRR-OH [P6V8-3NCSA3A6] | – | – | 48.8 | 8.20
H-KGAGKRRREKQRPSDKPRR-OH [Peptide P6V8-3NCSA3] | – | – | 8.8 | 0.23
H-KGRGARRREKQRPSDKPRR-OH [Peptide P6V8-3NCSA5] | – | – | – | 1.45
H-KGRGKARREKQRPSDKPRR-OH [Peptide P6V8-3NCSA6] | – | – | 2.16 | 5.10
H-KGRGKRAAEAQAPSDAPAR-OH [P6V8-3NCSA7,8, 10, 12, 16, 18] | – | – | 72.44 | 27.540
H-KGRGKRAAEAQRPSDKPRR-OH [P6V8-3NCSA7,8, 10] | – | – | 14.25 | 3.27
H-KGRGKRAAEKQAPSDKPRR-OH [P6V8-3NCSA7,8, 12] | – | – | 1.91 | –
H-RRPAAAGKRRREKQRPSDKPRR-OH [AS-1, RRP AAA GKR RRE KQR PSD KPR R] | – | – | 8 | 1
H-RRPKGRGKRRREKQRPSDAAAR-OH [AS-5] | – | – | 1.6 | 0.71
